Test results reported in ChEMBL document CHEMBL5634141 (Eur J Med Chem, 2023).
Calls of active or inactive are those of the source. No cut-off for these calls is given here.

Legend:
[1] = tested on: von Hippel-Lindau disease tumor suppressor/GTPase KRas (Homo sapiens), P01116+P40337 [G12C]; experiment: PROTAC activity at VHL/KRAS G12C mutant in human MIA PaCa-2 cells assessed as induction of protein degradation in presence of MG132 by Western blot analysis; format: cell-based
MIA PaCa-2 [2] = experiment: Antiproliferative activity against human MIA PaCa-2 cells expressing KRAS G12C mutant assessed as relative cell viability at 30 nM incubated for 72 hrs in presence of naporafenib by CCK-8 assay; format: functional; conditions: read-out: Activity
[3] = tested on: von Hippel-Lindau disease tumor suppressor/GTPase KRas (Homo sapiens), P01116+P40337 [G12C]; experiment: PROTAC activity at VHL/KRAS G12C mutant in human NCI-H358 cells assessed as inhibition of ERK phosphorylation incubated for 48 hrs by Western blotting analysis; format: cell-based; conditions: dose 10-10000 nM
MIA PaCa-2 [4] = experiment: Antiproliferative activity against human MIA PaCa-2 cells expressing KRAS G12C mutant assessed as relative cell viability at 30 nM incubated for 72 hrs in presence of daclolisib by CCK-8 assay; format: functional; conditions: read-out: Activity
NCI-H358 [5] = experiment: Inhibition of colony formation in human NCI-H358 cells expressing KRAS G12C mutant assessed as reduction in cell number at 30 nM incubated for 14 days in presence of SHP099 by crystal violet staining based analysis; format: functional; conditions: time 14.0 day
MIA PaCa-2 [6] = experiment: Inhibition of colony formation in human MIA PaCa-2 cells expressing KRAS G12C mutant assessed as reduction in cell number at 30 nM incubated for 14 days in presence of AZD4573 by crystal violet staining based analysis; format: functional; conditions: time 14.0 day
MIA PaCa-2 [7] = experiment: Antitumor activity against human MIA PaCa-2 cells xenografted in BALB/c nude mouse assessed as tumor growth inhibition at 30 mg/kg, ip measured after 8 days relative to control; format: functional; conditions: MIA PaCa-2, 192 h, time 8 day, read-out: TGI
NCI-H358 [8] = experiment: Antiproliferative activity against human NCI-H358 cells expressing KRAS G12C mutant assessed as relative cell viability at 30 nM incubated for 72 hrs in presence of selumetinib by CCK-8 assay; format: functional; conditions: read-out: Activity
MIA PaCa-2 [9] = experiment: Antiproliferative activity against human MIA PaCa-2 cells expressing KRAS G12C mutant assessed as relative cell viability at 30 nM incubated for 72 hrs in presence of selumetinib by CCK-8 assay; format: functional; conditions: read-out: Activity
[10] = tested on: von Hippel-Lindau disease tumor suppressor/GTPase KRas (Homo sapiens), P01116+P40337 [G12C]; experiment: PROTAC activity at VHL/KRAS G12C mutant in human NCI-H358 cells assessed as induction of protein degradation at 100 nM incubated for 1 to 8 days by Western blotting analysis; format: cell-based; conditions: time 1-8 day
MIA PaCa-2 [11] = experiment: Induction of apoptosis in human MIA PaCa-2 cells assessed as viable cells at 30 nM incubated for 48 hrs by Annexin V-FITC staining based flow cytometry analysis (reference value: 91.5 %); format: functional; conditions: read-out: Activity
MIA PaCa-2 [12] = experiment: Induction of apoptosis in human MIA PaCa-2 cells assessed as early apoptotic cells at 100 nM incubated for 48 hrs by Annexin V-FITC staining based flow cytometry analysis (reference value: 1.55 %); format: functional
MIA PaCa-2 [13] = experiment: Induction of apoptosis in human MIA PaCa-2 cells assessed as late apoptotic cells at 300 nM incubated for 48 hrs by Annexin V-FITC staining based flow cytometry analysis (reference value: 5.69 %); format: functional
MIA PaCa-2 [14] = experiment: Antitumor activity against human MIA PaCa-2 cells xenografted in BALB/c nude mouse assessed as tumor growth inhibition at 30 mg/kg, ip measured after 16 days relative to control; format: functional; conditions: MIA PaCa-2, 384 h, time 16 day, read-out: TGI
MIA PaCa-2 [15] = experiment: Induction of apoptosis in human MIA PaCa-2 cells assessed as necrotic cells at 300 nM incubated for 48 hrs by Annexin V-FITC staining based flow cytometry analysis (reference value: 1.25 %); format: functional
NCI-H23 = experiment: Antiproliferative activity against human NCI-H23 cells expressing KRAS G12C mutant assessed as relative cell viability at 30 nM incubated for 72 hrs by CCK-8 assay; format: functional; conditions: read-out: Activity
MIA PaCa-2 [16] = experiment: Antiproliferative activity against human MIA PaCa-2 cells expressing KRAS G12C mutant assessed as inhibition of cell growth incubated for 72 hrs by CCK-8 assay; format: functional, cell-based; conditions: MIA PaCa-2, 72 h
NCI-H358 [17] = experiment: Synergistic antiproliferative activity against human NCI-H358 cells expressing KRAS G12C mutant assessed as combination index at 30 nM incubated for 72 hrs in presence of crizotinib by CCK-8 assay; format: functional
[18] = Half life in ICR mouse at 2 mg/kg, iv measured after 24 hrs by LC-MS/MS analysis; format: ADME, organism-based; conditions: in vivo
NCI-H358 [19] = experiment: Induction of apoptosis in human NCI-H358 cells assessed as early apoptotic cells at 300 nM incubated for 48 hrs by Annexin V-FITC staining based flow cytometry analysis (reference value: 1.60 %); format: functional
MIA PaCa-2 [20] = experiment: Induction of apoptosis in human MIA PaCa-2 cells assessed as late apoptotic cells at 30 nM incubated for 48 hrs by Annexin V-FITC staining based flow cytometry analysis (reference value: 5.69 %); format: functional
MIA PaCa-2 [21] = experiment: Antiproliferative activity against human MIA PaCa-2 cells expressing KRAS G12C mutant assessed as relative cell viability at 30 nM incubated for 72 hrs by CCK-8 assay; format: functional; conditions: read-out: Activity
MIA PaCa-2 [22] = experiment: Inhibition of colony formation in human MIA PaCa-2 cells expressing KRAS G12C mutant assessed as reduction in cell number at 30 nM incubated for 14 days in presence of SHP099 by crystal violet staining based analysis; format: functional; conditions: time 14.0 day

C=CC(=O)N1CCN(c2nc(=O)n(-c3c(C)ccnc3C(C)C)c3nc(-c4c(F)cccc4OCC4CCN(CCCC(=O)N[C@H](C(=O)N5C[C@H](O)C[C@H]5C(=O)NCc5ccc(-c6scnc6C)cc5)C(C)(C)C)CC4)c(F)cc23)[C@@H](C)C1
Activity [1]: inactive | viability at 0.03 µM (MIA PaCa-2 [2]): 0.27% | Activity [3]: Dose-Dependent Effect | viability at 0.03 µM (MIA PaCa-2 [4]): 0.17% | inhibition (NCI-H358 [5]): Active | inhibition (MIA PaCa-2 [6]): Active | inhibition in vivo at 30 mg/kg (MIA PaCa-2 [7]): > 100% | viability at 0.03 µM (NCI-H358 [8]): 0.31% | viability at 0.03 µM (MIA PaCa-2 [9]): 0.1% | Activity [10]: Active | viability at 0.03 µM (MIA PaCa-2 [11]): 88.8% | Activity (MIA PaCa-2 [12]): 6.73% | Activity (MIA PaCa-2 [13]): 19.9% | inhibition in vivo at 30 mg/kg (MIA PaCa-2 [14]): 100% | Activity (MIA PaCa-2 [15]): 4.08% | viability at 0.03 µM (NCI-H23): 0.85% | IC50 (MIA PaCa-2 [16]): 45 nM | CI (NCI-H358 [17]): <1 | t1/2 [18]: 52.6 min | Activity (NCI-H358 [19]): 4.06% | Activity (MIA PaCa-2 [20]): 7.18% | viability at 0.03 µM (MIA PaCa-2 [21]): 0.71% | inhibition (MIA PaCa-2 [22]): Active
